Source: publication PMC5597121, “The human bitter taste receptor T2R38 is broadly tuned for bacterial compounds” (PLoS ONE, 2017)
Substitutions are numbered along the chain they refer to. Where “and” joins values, the source holds several entries; their conditions need not be identical. Equal values may be shown once. Entries after “also recorded” stand apart in the source; their conditions may differ. Each block holds one molecule with its values, some of them ahead of it. Positions of bridges follow the written chain, without caps; N, C: chain ends. Residues, ends and D or L forms follow the SMILES beside them.

Columns and labels:
[1] = Solubility in aqueous / buffer solution; type: physicochemical
Procedure: 32 volatile metabolites of pathogens (S1 Fig) were selected from the literature. All compounds were dissolved in buffer solution, except C4HSL dissolved in buffer solution, DMSO or ethanol, C12HSL dissolved in DMSO or ethanol, and Agr D1 thiolactone dissolved in DMSO.

[2] = biological target: T1, T2R38 (Homo sapiens, UniProt P59533, A49P/I296V); assay: Single cell calcium imaging, Peakrapid cells (Gα16gustducin44) transiently transfected with T2R38; type: cell-based
T1 construct: leader: first 45 amino acids of rat somatostatin receptor subtype 3 (SSTR3) (N); expressed in transfected cells; host or cells: Peakrapid cells (HEK293 derivative, ATCC CRL-2828) stably expressing Galpha16gustducin44, co-transfected with human RTP4
T1 sequence (P59533 1-333 A49P/I296V): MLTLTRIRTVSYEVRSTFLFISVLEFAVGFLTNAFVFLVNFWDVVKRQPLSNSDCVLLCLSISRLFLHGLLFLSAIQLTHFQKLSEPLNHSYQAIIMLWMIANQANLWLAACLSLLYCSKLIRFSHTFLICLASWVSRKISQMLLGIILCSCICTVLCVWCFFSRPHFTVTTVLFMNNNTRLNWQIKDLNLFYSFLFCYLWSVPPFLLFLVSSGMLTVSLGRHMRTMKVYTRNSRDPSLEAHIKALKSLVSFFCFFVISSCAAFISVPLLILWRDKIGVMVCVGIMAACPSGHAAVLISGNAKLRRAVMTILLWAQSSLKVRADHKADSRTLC
From the text: (§1) The coding sequences of either the functional (PAV, GenBank accession number AY258597.1) and non-functional (AVI, GenBank accession number AF494231.1) were amplified from human genomic DNA by polymerase chain reaction.
These coding sequences were cloned in a pEFIB backbone vector in translational fusion with the coding sequence of a leader sequence corresponding to the 45 first amino acids of the rat somatostatin receptor subtype 3 [20]. The constructs were verified by sequencing. The coding sequence of RTP4 (Genbank accession number AY562238.1) was amplified from human spleen cDNA and cloned a pCI backbone vector.
The Gα16gustducin44 sequence was generated by swapping the last 132 nucleotides of the G α16 with the corresponding terminal sequence of the Gα-gustducin [21] and was cloned in a pIRES-Puro plasmid. This vector was transfected in the Peakrapid cell line (ATCC reference: CRL-2828™; purchased from LGC Standards SARL, Molsheim, FRANCE), HEK293 cell line derivative, cultured in EMEM culture medium (reference BE12-136F; Lonza, Vervier, BELGIUM) supplemented with 10% of foetal bovine serum (Sigma-Aldrich, Bornem, Belgium) and 1 μg/ml of Puromycin to allow the selection of recombinant cell populations. Cell clones expressing the Gα16gustducin44 were selected and the clone presenting the best functional response of T2R38 to phenylthicarbamide was used for the study (see below).
(§2) The Peakrapid cell line expressing stably a chimeric Gα16gustducin44 G protein [21] was used. 40 000 cells were seeded in each well of a black/clear poly-D-lysine cellware pre-coated 96-well plate (Biocoat®, Becton-Dickinson, Erembodegem, Belgium) and transiently transfected with 50 ng of plasmid DNA containing the receptor sequence or not (empty vector) and with 50 ng of chaperone protein RTP4 per well. Forty hours after transfection, cells were incubated with the calcium-sensitive dye Fluo4 (Life Technologies, Oregon, USA) solubilized at 10 μg/ml in a buffer containing EMEM (150 mM NaCl, 5 mM KCl, 2 mM CaCl2, 1.2 mM MgCl2, 10 mM glucose), 10 mM HEPES, 0.01% (v/v) Pluronic F127, 0.1% (w/v) bovine serum albumin. After 1 h incubation at 37°C, cells were rinsed twice with the same buffer without Fluo4 and left in 50 μl buffer (prior ligand injection). Measurement were performed on a platform based on a motorized Axiobserver Z1 fluorescence microscope piloted by a Axiovision software (Zeiss, Jena, Germany) as described previously. For each selected well, images were taken 1 per second, during 30 seconds. 50 μl of the buffer containing the ligand twice concentrated was injected on the 2nd second of the time lapse record.
After time lapse record, the number of responding cells in each injected well was determined using ImageJ 1.34 (Rasband, W.S., ImageJ, National Institutes of Health, Bethesda, Maryland, USA, http://rsb.info.nih.gov/ij/1997-2004), and expressed as the percentage of the surface of a microscope field covered by activated cells with respect to the total surface of the field covered by confluent cells. Automated determination of the surface occupied by responding cells is easier to perform than a cell counting. The resulting percentage of positive surface provided a convenient estimation of the percentage of responding cells, as observed by comparing the percentage of positive surface and percentage of responsive cells determined by direct counting, in the same experiment. In agreement with the literature, the percentage of responding cells was proportional to the agonist concentration. During experiment in each plate, at least 2 wells were tested with phenylthiocarbamide (PTC) at 0.1 mM, which is one of the best characterized agonist of T2R38 in the literature. The activation of T2R38 by PTC allows normalization of the result of other tested molecules. The results were thus expressed as the percentage of PTC activation. […]

[3] = biological target: T2, T2R38 AVI (Homo sapiens, UniProt P59533, A262V); assay: Single cell calcium imaging, control: cells transfected with nonfunctional allele (AVI) of T2R38; type: cell-based
T2 construct: leader: first 45 amino acids of rat somatostatin receptor subtype 3 (SSTR3) (N); expressed in transfected cells; host or cells: Peakrapid cells (HEK293 derivative, ATCC CRL-2828) stably expressing Galpha16gustducin44, co-transfected with human RTP4
T2 sequence (P59533 1-333 A262V): T1 sequence (P59533 1-333 A49P/I296V) with P49A, A262V, V296I
Procedure: as §1, §2
(§3) After time lapse record, the number of responding cells in each injected well was determined using ImageJ 1.34 (Rasband, W.S., ImageJ, National Institutes of Health, Bethesda, Maryland, USA, http://rsb.info.nih.gov/ij/1997-2004), and expressed as the percentage of the surface of a microscope field covered by activated cells with respect to the total surface of the field covered by confluent cells. Automated determination of the surface occupied by responding cells is easier to perform than a cell counting. The resulting percentage of positive surface provided a convenient estimation of the percentage of responding cells, as observed by comparing the percentage of positive surface and percentage of responsive cells determined by direct counting, in the same experiment. In agreement with the literature, the percentage of responding cells was proportional to the agonist concentration. During experiment in each plate, at least 2 wells were tested with phenylthiocarbamide (PTC) at 0.1 mM, which is one of the best characterized agonist of T2R38 in the literature. The activation of T2R38 by PTC allows normalization of the result of other tested molecules. The results were thus expressed as the percentage of PTC activation. In scaling calcium imaging assays using this latter receptor, concentration-responses curves were performed and data were fitted to a four parameter logistic equation: y=min+ (max− min)/1+10 ^(logEC50−x)nH . Min and max are the minimum and the maximum values of the percentage of cell-activated surface respectively, y is the percentage of cell-activated surface at the x concentration and nH is the Hill coefficient.

[4] = tested on: mock transfected cells (empty vector); assay: Single cell calcium imaging, control: mock transfected (empty vector) Peakrapid cells; type: cell-based, human
Procedure: as §2, §3

SMILES: CC[C@H](C)[C@@H]1NC(=O)[C@H](Cc2ccccc2)NC(=O)[C@H](CC(=O)O)NC(=O)[C@@H](NC(=O)[C@@H](NC(=O)[C@H](CO)NC(=O)[C@@H](N)Cc2ccc(O)cc2)[C@@H](C)O)CSC(=O)[C@H](CCSC)NC1=O [Agr D1 thiolactone] (H-YSTCDFIM; thioester 4-C; N-terminus assumed)
- solubility [1]: not soluble in aqueous solution
- agonist activity on T2R38 (in words) [2]: inactive
- specific activation of T2R38 ([2]; 0.1 mM solubilized in 0.3% DMSO): did not show specific activation; also recorded: did not activate T2R38

- effect on the non-functional haplotype of T2R38 (AVI) [3]: absence of effect
- agonist activity on T2R38 (in words) [2]: activated T2R38
- percentage of surface covered by activated cells ([2]; DMSO 0.15%): 0.58% and 0.91% and 0.69% and 1.00%
- percentage of surface covered by activated cells ([2]; DMSO 0.3%): 0.69% and 0.46%
- Emax (% of positive control) ([2]; percentage of the response elicited by 0.1 mM PTC): 88 % of positive control
SMILES: C[S+](C)[O-] [DMSO, dimethylsulfoxide]
- percentage of surface covered by activated cells ([4]; DMSO 0.0208957 M): 0.0457% and 0.0545% and 0.10%
- percentage of surface covered by activated cells ([4]; DMSO 0.0505834 M): 0.62% and 0.46% and 0.98%
- percentage of surface covered by activated cells ([4]; DMSO 0.0660305 M): 1.05% and 0.28% and 0.79%
- percentage of surface covered by activated cells ([4]; DMSO 0.113804 M): 0.19% and 0.57% and 0.37%
- percentage of surface covered by activated cells ([4]; DMSO 0.15%): 0.20% and 0.05%
- percentage of surface covered by activated cells ([4]; DMSO 0.161577 M): 0.48% and 0.22% and 0.50%
- percentage of surface covered by activated cells ([4]; DMSO 0.208656 M): 1.44% and 1.21% and 1.20%
- percentage of surface covered by activated cells ([4]; DMSO 0.283773 M): 0.60% and 5.54% and 2.61%
- percentage of surface covered by activated cells ([4]; DMSO 0.3%): 0.01%
- percentage of surface covered by activated cells ([4]; DMSO 0.388101 M): 0.89% and 2.18% and 2.66%
- percentage of surface covered by activated cells ([4]; DMSO 0.417313 M): 2.52% and 1.37% and 1.55%
- percentage of surface covered by activated cells ([4]; DMSO 1.5%): 1.51% and 0.51% and 0.83% and 0.76% and 0.97% and 0.34%
- percentage of surface covered by activated cells ([2]; DMSO 0.0208957 M): 0.32% and 1.00% and 0.12% and 3.02% and 1.04% and 0.84%
- percentage of surface covered by activated cells ([2]; DMSO 0.0505834 M): 0.62% and 1.17% and 1.07% and 2.06% and 2.44%
- percentage of surface covered by activated cells ([2]; DMSO 0.0660305 M): 0.58% and 2.76% and 4.06% and 1.23% and 6.36% and 2.08%
- percentage of surface covered by activated cells ([2]; DMSO 1.5%): 4.39% and 7.39% and 7.25% and 2.49% and 4.85% and 7.28%
- T2R38-dependent calcium response ([2]; DMSO 1.5% (209 mM) alone): induced a T2R38-dependent calcium response of the same intensity; also recorded: activates specifically T2R38
